Where a SMILES comes first, the peptide text is derived from it. Bridges are numbered along the chain shown (N, C = ends). [ ]: non-standard residue; d: D form. The star is where a group is joined. Propyl(3-NH2) = NCCC*; Acm = CC(=O)NC*
Species on record: Canis familiaris
Assay: Percent injected dose in the blood was determined by canine thrombosis model
Type: functional, organism-based
Settings: Canis lupus familiaris

Structure (SMILES) | ID/g [%]
N=C(N)c1ccc(C[C@H]2NC(=O)[C@H](Cc3ccc(O)cc3)NC(=O)CSC[C@H](C(=O)N[C@@H](CCCCN)C(=O)NCC(=O)N[C@@H](CSCC(=O)CC(=O)N[C@@H](CCCCN)C(=O)N[C@@H](CCCCN)C(=O)NCC(=O)N[C@@H](CS)C(=O)O)C(=O)NCC(N)=O)NC(=O)[C@@H](CC(=O)O)NC(=O)CNC2=O)cc1 | 0.0025

Species on record: Canis familiaris
Assay: Percent injected dose in the thrombus was determined by canine thrombosis model
Type: functional, organism-based
Settings: Canis lupus familiaris

Structure (SMILES) | ID/g [%]
N=C(N)c1ccc(C[C@H]2NC(=O)[C@H](Cc3ccc(O)cc3)NC(=O)CSC[C@H](C(=O)N[C@@H](CCCCN)C(=O)NCC(=O)N[C@@H](CSCC(=O)CC(=O)N[C@@H](CCCCN)C(=O)N[C@@H](CCCCN)C(=O)NCC(=O)N[C@@H](CS)C(=O)O)C(=O)NCC(N)=O)NC(=O)[C@@H](CC(=O)O)NC(=O)CNC2=O)cc1 | 0.017

Species on record: Homo sapiens
Assay: Inhibition of ADP-induced platelet aggregation in human platelet rich citreated plasma in presence of 10-20 uM ADP.
Type: functional
Settings: not given

IC50 [µM] | Structure (SMILES)
0.05 | N=C(N)c1ccc(C[C@@H]2NC(=O)[C@@H](Cc3ccc(O)cc3)NC(=O)CSC[C@@H](C(=O)NCC(=O)NCC(=O)N[C@@H](CS)C(=O)NCC(=O)N[C@@H](CS)C(=O)NCC(=O)NCC(=O)N[C@@H](CSCC(=O)CC(=O)N[C@@H](CCCCN)C(=O)N[C@@H](CCCCN)C(=O)NCC(=O)N[C@@H](CS)C(=O)O)C(N)=O)NC(=O)[C@H](CC(=O)O)NC(=O)CNC2=O)cc1
0.04 | NCCCC[C@H](NC(=O)[C@@H]1CSCC(=O)N[C@H](Cc2ccc(O)cc2)C(=O)N[C@@H](CSCCCN)C(=O)NCC(=O)N[C@@H](CC(=O)O)C(=O)N1)C(=O)NCC(=O)N[C@@H](CS)C(=O)NCC(=O)N[C@@H](CS)C(=O)NCC(=O)NCC(=O)N[C@@H](CSC1CC(=O)[N+]2(COC2)C1=O)C(N)=O (some centres not stated)
0.14 | CC(=O)NCSC[C@H](NC(=O)CNC(=O)CNC(=O)[C@@H]1CSCC(=O)N[C@H](Cc2ccc(O)cc2)C(=O)N[C@@H](CSCCCN)C(=O)NCC(=O)N[C@@H](CC(=O)O)C(=O)N1)C(=O)NCC(=O)N[C@@H](CSCNC(C)=O)C(=O)NCC(=O)NCC(=O)N[C@@H](CSC1CC(=O)[N+]2(CCCCCC2)C1=O)C(N)=O (some centres not stated)
0.3 | CC(=O)NCSC[C@H](NC(=O)CNC(=O)[C@H](CSCNC(C)=O)NC(=O)CNC(=O)CNC(=O)CNC(=O)[C@@H]1CSCC(=O)N[C@H](Cc2ccc(O)cc2)C(=O)N[C@@H](CSCCCN)C(=O)NCC(=O)N[C@@H](CC(=O)O)C(=O)N1)C(N)=O ({CH2CO}-[dY]C(Propyl(3-NH2))GDCGGGC(Acm)GC(Acm)-NH2; thioether N-5)
0.11 | CC(=O)NCSC[C@H](NC(=O)CNC(=O)CNC(=O)[C@@H]1CSCC(=O)N[C@H](Cc2ccc(O)cc2)C(=O)N[C@@H](CSCCCN)C(=O)NCC(=O)N[C@@H](CC(=O)O)C(=O)N1)C(=O)NCC(=O)N[C@@H](CSCNC(C)=O)C(=O)NCC(=O)NCC(=O)N[C@@H](CSCC(=O)CC(=O)N[C@@H](CCCCN)C(=O)N[C@@H](CCCCN)C(=O)NCC(=O)N[C@@H](CS)C(=O)O)C(N)=O
0.11 | NCCCC[C@H](NC(=O)CNC(=O)CNC(=O)[C@@H]1CSCC(=O)N[C@H](Cc2ccc(O)cc2)C(=O)N[C@@H](CSCCCN)C(=O)NCC(=O)N[C@@H](CC(=O)O)C(=O)N1)C(=O)NCC(=O)N[C@@H](CCCCN)C(=O)NCC(=O)N[C@@H](CCCCN)C(=O)N[C@@H](CCCCN)C(=O)NCC(=O)N[C@@H](CS)C(=O)NCC(N)=O
0.03 | CC(=O)NCSC[C@H](NC(=O)CNC(=O)CNC(=O)[C@@H]1CSCC(=O)N[C@H](Cc2ccc(O)cc2)C(=O)N[C@@H](CSCCCN)C(=O)NCC(=O)N[C@@H](CC(=O)O)C(=O)N1)C(=O)NCC(=O)N[C@@H](CSCNC(C)=O)C(=O)NCC(=O)NCC(=O)N[C@@H](CSCC(=O)CC(=O)N[C@@H](CCCCN)C(=O)N[C@@H](CCCCN)C(=O)N[C@@H](CCCCN)C(=O)N[C@@H](CCCCN)C(=O)NCC(=O)N[C@@H](CS)C(=O)O)C(N)=O
1.3 | CC(=O)NCSC[C@H](NC(=O)CNC(=O)[C@H](CSCNC(C)=O)NC(=O)CNC(=O)CNC(=O)[C@@H]1CSCC(=O)N[C@H](Cc2ccc(O)cc2)C(=O)N[C@@H](CCCN=C(N)N)C(=O)NCC(=O)N[C@@H](CC(=O)O)C(=O)N1)C(N)=O
0.09 | CC(=O)NCSC[C@H](NC(=O)CNC(=O)CNC(=O)[C@H]1CSCC(=O)N[C@@H](Cc2ccc(O)cc2)C(=O)N[C@H](CSCCCN)C(=O)NCC(=O)N[C@H](CC(=O)O)C(=O)N1)C(=O)NCC(=O)N[C@@H](CSCNC(C)=O)C(=O)NCC(=O)NCC(=O)N[C@@H](CSCC(=O)CC(=O)N[C@@H](CCCCN)C(=O)N[C@@H](CCCCN)C(=O)NCC(=O)N[C@@H](CS)C(=O)O)C(=O)NCC(=O)[C@@H]1CSC23SCC(NC(=O)[C@H](CSCC(=O)CC(=O)N[C@@H](CCCCN)C(=O)N[C@@H](CCCCN)C(=O)NCC(=O)N[C@@H](CS)C(=O)O)NC(=O)CNC(=O)CNC(=O)[C@H](CSCNC(C)=O)NC(=O)CNC(=O)[C@H](CSCNC(C)=O)NC(=O)CNC(=O)CNC(=O)[C@H]4CSCC(=O)N[C@@H](Cc5ccc(O)cc5)C(=O)N[C@H](CSCCCN)C(=O)NCC(=O)N[C@H](CC(=O)O)C(=O)N4)C(=O)N2CC(=O)N13 (some centres not stated)
0.03 | CC(=O)NCSC[C@H](NC(=O)CNC(=O)CNC(=O)[C@@H]1CSCC(=O)N[C@H](Cc2ccc(O)cc2)C(=O)N[C@@H](CSCCCN)C(=O)NCC(=O)N[C@@H](CC(=O)O)C(=O)N1)C(=O)NCC(=O)N[C@@H](CSCNC(C)=O)C(=O)NCC(=O)NCC(=O)N[C@@H](CSC1CCNC(=O)CNCCNC(=O)CNCCNC(=O)C1)C(N)=O (some centres not stated)
1.4 | CC(=O)NCSC[C@H](NC(=O)CNC(=O)[C@H](CSCNC(C)=O)NC(=O)CNC(=O)CNC(=O)CNC(=O)[C@@H]1CSCC(=O)N[C@H](Cc2ccc(O)cc2)C(=O)N[C@@H](CCCN=C(N)N)C(=O)NCC(=O)N[C@@H](CC(=O)O)C(=O)N1)C(N)=O
0.03 | N=C(N)c1ccc(C[C@@H]2NC(=O)[C@@H](Cc3ccc(O)cc3)NC(=O)CSC[C@@H](C(=O)N[C@@H](CCCCN)C(=O)NCC(=O)N[C@@H](CSCC(=O)CC(=O)N[C@@H](CCCCN)C(=O)N[C@@H](CCCCN)C(=O)NCC(=O)N[C@@H](CS)C(=O)O)C(=O)NCC(N)=O)NC(=O)[C@H](CC(=O)O)NC(=O)CNC2=O)cc1 [listing 1 of 2 here]
0.04 | CC(=O)NCSC[C@H](NC(=O)CNC(=O)CNC(=O)[C@@H]1CSCC(=O)N[C@H](Cc2ccc(O)cc2)C(=O)N[C@@H](CSCCCN)C(=O)NCC(=O)N[C@@H](CC(=O)O)C(=O)N1)C(=O)NCC(=O)N[C@@H](CSCNC(C)=O)C(=O)NCC(=O)NCC(=O)N[C@@H](CSC1CC(=O)[N+]2(CCCNCCC2)C1=O)C(N)=O (some centres not stated)
0.08 | N=C(N)c1ccc(C[C@@H]2NC(=O)[C@@H](Cc3ccc(O)cc3)NC(=O)CSC[C@@H](C(=O)N[C@@H](CCCCN)C(=O)NCC(=O)N[C@@H](CS)C(=O)NCC(N)=O)NC(=O)[C@H](CC(=O)O)NC(=O)CNC2=O)cc1
0.08 | C[C@H](NC(=O)[C@H](CS)NC(=O)CNC(=O)[C@H](CCCCN)NC(=O)[C@H](CCCCN)NC(=O)CNC(=O)CNC(=O)[C@H](CCCCN)NC(=O)CNC(=O)CNC(=O)[C@H](CCCCN)NC(=O)[C@@H]1CSCC(=O)N[C@H](Cc2ccc(O)cc2)C(=O)N[C@@H](CSCCCN)C(=O)NCC(=O)N[C@@H](CC(=O)O)C(=O)N1)C(N)=O
0.14 | NCCCC[C@H](NC(=O)[C@@H]1CSCC(=O)N[C@H](Cc2ccc(O)cc2)C(=O)N[C@@H](CSCCCN)C(=O)NCC(=O)N[C@@H](CC(=O)O)C(=O)N1)C(=O)N[C@@H](CS)C(=O)NCC(N)=O
0.04 | N=C(N)c1ccc(C[C@H]2NC(=O)[C@H](Cc3ccc(O)cc3)NC(=O)CSC[C@H](C(=O)N[C@@H](CCCCN)C(=O)NCC(=O)N[C@@H](CSCC(=O)CC(=O)N[C@@H](CCCCN)C(=O)N[C@@H](CCCCN)C(=O)NCC(=O)N[C@@H](CS)C(=O)O)C(=O)NCC(=O)NCC(=O)[C@@H]3CSC45SCC(NC(=O)CNC(=O)[C@H](CSCC(=O)CC(=O)N[C@@H](CCCCN)C(=O)N[C@@H](CCCCN)C(=O)NCC(=O)N[C@@H](CS)C(=O)O)NC(=O)CNC(=O)[C@H](CCCCN)NC(=O)[C@H]6CSCC(=O)N[C@@H](Cc7ccc(O)cc7)C(=O)N[C@H](Cc7ccc(C(=N)N)cc7)C(=O)NCC(=O)N[C@H](CC(=O)O)C(=O)N6)C(=O)N4CC(=O)N35)NC(=O)[C@@H](CC(=O)O)NC(=O)CNC2=O)cc1 (some centres not stated)
0.16 | CC(=O)NCSC[C@H](NC(=O)CNC(=O)[C@H](CSCNC(C)=O)NC(=O)CNC(=O)[C@H](CCCCN)NC(=O)[C@@H]1CSCC(=O)N[C@H](Cc2ccc(O)cc2)C(=O)N[C@@H](CSCCCN)C(=O)NCC(=O)N[C@@H](CC(=O)O)C(=O)N1)C(N)=O

Test system: not listed separately
Assay: Thrombus to blood ratio was determined by canine thrombosis model
Type: functional
Settings: not given

Structure (SMILES) | Ratio
N=C(N)c1ccc(C[C@H]2NC(=O)[C@H](Cc3ccc(O)cc3)NC(=O)CSC[C@H](C(=O)N[C@@H](CCCCN)C(=O)NCC(=O)N[C@@H](CSCC(=O)CC(=O)N[C@@H](CCCCN)C(=O)N[C@@H](CCCCN)C(=O)NCC(=O)N[C@@H](CS)C(=O)O)C(=O)NCC(N)=O)NC(=O)[C@@H](CC(=O)O)NC(=O)CNC2=O)cc1 | 7.2

Test system: not listed separately
Assay: Thrombus to muscle ratio was determined by canine thrombosis model
Type: functional, Muscle tissue
Settings: not given

Structure (SMILES) | Ratio
N=C(N)c1ccc(C[C@@H]2NC(=O)[C@@H](Cc3ccc(O)cc3)NC(=O)CSC[C@@H](C(=O)N[C@@H](CCCCN)C(=O)NCC(=O)N[C@@H](CSCC(=O)CC(=O)N[C@@H](CCCCN)C(=O)N[C@@H](CCCCN)C(=O)NCC(=O)N[C@@H](CS)C(=O)O)C(=O)NCC(N)=O)NC(=O)[C@H](CC(=O)O)NC(=O)CNC2=O)cc1 [listing 2 of 2 here] | 41
